The record followed here is US8568714B2, “Lys K endolysin is synergistic with lysostaphin against MRSA” (priority 2008, dated 2013).

Several values for one entry are separate records, joined by “and”; a condition that tells them apart may be missing. Equal values may be shown once. Read-outs that look alike come from different tables or passages of the source.

One test has as its system MRSA USA300. The experiment in a line: Modified checkerboard synergy assay. The test is classed as cell-based, Staphylococcus aureus. The protocol:
Modified checkerboard assay experiments were performed according to Graham and Coote, supra. S. aureus 305 or MRSA USA300 cells at 1×10^6 CFU/ml were prepared as for the MIC assay, and added to wells containing varying concentrations of both LysK and lysostaphin diluted in TSB. The amount of buffer in each well was adjusted to maintain the same final concentration of storage buffer (5%) and corrected with 2×TSB to maintain 1×TSB in all wells. The plate was incubated at 37° C. for 20 h, and then analyzed for clear vs. turbid wells. The Fractional Inhibitory Concentration (FIC) is calculated as the MIC of the antimicrobial in combination divided by the MIC of the antimicrobial acting alone.
To determine if these proteins could act synergistically, both LysK and lysostaphin were tested in a checkerboard assay with various concentrations of each to determine the minimal concentration of each in combination, that could inhibit growth of the MRSA USA300 (FIG. 6). The last row and column on the 96 well microtiter plate replicate the MIC determinations for lysostaphin and LysK, respectively, with nearly identical results obtained for the MIC in this assay, as in FIG. 5. […] It is apparent that the inhibition of growth when the two were added simultaneously was greater than the expected additive effect of each alone. The ΣFIC was 0.45+/−0.07 (three independent experiments), indicating strong synergistic activity (Hall et al., supra), including one assay with S. aureus 305 (data not shown).

The next test has as its system MRSA strain USA300. As to the kind of experiment: Microdilution broth MIC determination. To be noted: MRSA USA300, TSB, 37° C., 20 h. The test is classed as cell-based, Staphylococcus aureus. On the procedure: (§1) A classical microdilution broth method for determination of the Minimal Inhibitory Concentration (MIC) was used (Jones et al. 1985. In Manual of Clinical Microbiology, Balows et al. (Eds.), American Society for Microbiology, Washington D.C., pages 972-977). Briefly, logarithmic-phase bacteria were cultivated in tryptic soy broth and adjusted in broth to a concentration of 1×10^6 CFU/ml. Sterile microtiter plates containing 100 μl of either LysK or lysostaphin diluted in TSB are inoculated with 100 μl of the bacterial suspension to yield 5×10^5 CFU/ml. The plate is incubated at 37° C. for 20 h, at which point the plate is analyzed for clear vs. turbid wells. Each MIC assay represents at least two identical determinations per experiment.
MIC determinations for MRSA strain USA300 by lysostaphin and C-His-LysK, were performed in a 96 well microtiter plate. (FIG. 5).

The next test concerns S. aureus strain 305. As to the kind of experiment: MIC determination on S. aureus strain 305. The test is classed as cell-based. To be noted: Staphylococcus aureus. On the procedure:
as §1

As usually defined, the MIC is the least concentration at which growth counts as inhibited. Take “lysostaphin: recombinant non-tagged mature 246 amino acid anti-staphylococcal bacteriocin of S. simulans, Sigma-Aldrich L0761”: the “concentration of each in combination that inhibits growth” value with MRSA USA300 (cleared well: lysostaphin 0.018 with LysK 11.43) turned out to be 0.018 µg/mL; in the test with MRSA USA300 (cleared well: lysostaphin 0.027 with LysK 5.71), 0.027 µg/mL. In addition, in the test with MRSA USA300 (second cleared-well condition), the “concentration in combination as % of each agent's MIC” value is 16% and < 16%. Further, the MIC was 0.096 µg/mL in the test with MRSA strain USA300; 0.097 µg/mL and 0.096 ± 0.018 µg/mL in the test on MRSA strain USA300 (listed as Lysostaphin).
`CC1(C)S[C@@H]2[C@H](NC(=O)[C@H](N)c3ccccc3)C(=O)N2[C@H]1C(=O)O` [Ampicillin]: the MIC was approximately 0.4 µg/mL in the test on S. aureus strain 305 (read-out: MIC) and approximately 1 µM with S. aureus strain 305 (translated from μg/ml, read-out: MIC on a molar basis).
